Measurements published in patent publication US4521419A, “Condensed cycloaliphatic derivatives of substituted pyrido[1,2-a]pyrimidines and methods of treating allergic conditions, peptic ulcers and inhibiting gastric acid secretion with them” (Farmitalia Carlo Erba S.p.A., priority 1982, dated 1985).

Experiments:
[1] = system: gastric secretion in rats; test: inhibition of gastric secretion in rats (H. Shay et al.); type: in vivo; settings: rat, intraduodenal administration; read-out: antisecretory activity, approximate ED25
Experimental: (§1) One of the preferred compounds of the invention having antisecretory activity is, for example, the compound 3-(2-methyl-benzylidene)-1,2,3,10-tetrahydro-10-oxo-10H-cyclopenta[d]pyrido[1,2-a]pyrimidine-7-carboxylic acid, which has an approximate ED25 value of 10 mg/kg in the above test in the rat, after intraduodenal administration. In view of their high therapeutic index the compounds of the invention can be safely used in medicine. For example, the approximate acute toxicity (LD50) of the compounds 3-benzylidene-1,2,3,10-tetrahydro-10-oxo-cyclopenta[d]pyrido[1,2-a]pyrimidine-7-carboxylic acid, 3-(2-methyl-benzylidene)-1,2,3,10-tetrahydro-10-oxo-10H-cyclopenta[d]pyrido[1,2-a]pyrimidine-7-carboxylic acid and 4-benzylidene-1,2,3,4-tetrahydro-11-oxo-11H-pyrido[2,1-b]quinazoline-8-carboxylic acid, in the mouse, determined with single administration of increasing doses and measured on the seventh day after the day of treatment, is per os higher than 800 mg/kg. Analogous toxicity data have been found for the other compounds of the invention.

[2] = acute toxicity (LD50) in the mouse; settings: in vivo, po, per os, single administration of increasing doses, measured on the seventh day after treatment, read-out: approximate acute toxicity (LD50)
Experimental: as §1

[3] = system: restraint ulcers in rats; test: inhibition of restraint ulcers in rats (Bonfils et al.); type: in vivo; settings: po, 1 h; rat, per os one hour before immobilization; approximate value; read-out: Anti-ulcerogenic activity ED50
Experimental: (§2) For example, in the above test in the rat the compound FCE 21273 gives about a 30% inhibition of RPAR reaction when administered orally at a dosage of 100 mg/kg. The compounds of the present invention, furthermore, are active on the gastroenterical system, in particular they are endowed with anti-ulcerogenic and anti-secretory activity and are therefore useful in therapy, for example, in the prevention and treatment of peptic, e.g., duodenal, gastric and esophageal, ulcers and to inhibit gastric acid secretion. The anti-ulcerogenic activity of the compounds of the invention is shown, e.g., by the fact that they are active in the test of inhibition of restraint ulcers in rats, according to the method of Bonfils et al. (Therapie, 1960, 15, 1096; Jap. J.Pharmac. 1968, 18, 9).
The tested compound was administered per os (p.o.) one hour before the immobilization.
Six Sprague-Dawley male rats (100-120 g) fasted 24 hours were used for the experiment: a square flexible small-mesh wire netting was used for the immobilization and 4 hours after the immobilization the rats were sacrificed, their stomachs were removed and the lesions counted under a dissecting microscope.

[4] = system: rat peritoneal cells; test: A 23187 induced SRS production from rat peritoneal cells; type: cell-based; settings: in vitro, FCE 21273 at 1 mcg/ml
From the text: (1) test of A 23187 induced SRS production from rat peritoneal cells, according to M. K. Bach and J. R. Brashler (J. Immunol., 113, 2040, 1974);

[5] = system: chopped guinea-pig lung; test: antigen induced SRS production from chopped guinea-pig lung; type: cell-based; settings: Cavia porcellus, in vitro, FCE 21273 at 10 mcg/ml
From the text: (2) test of antigen induced SRS production from chopped guinea-pig lung, according to W. E. Brocklehurst (J. Physiol., 151, 416, 1960); and in vivo

[6] = system: Reversed Passive Arthus Reaction (RPAR); test: Reversed Passive Arthus Reaction (RPAR) in the rat; type: in vivo; settings: administered orally at 100 mg/kg
From the text: Furthermore the compounds of this invention are effective in vivo, for example, in inhibiting the Reversed Passive Arthus Reaction (RPAR) which is a model of immune-complex induced inflammatory reaction initiated by the interaction of antigen and antibody resulting in the formation of precipitating immune-complex, followed by complement fixation and accumulation of PMN in the focal site (D. K. Gemmell, J. Cottney and A. J. Lewis, Agents and Actions 9/1 page 107, 1979).
as §2

SMILES	ED25 [1]	LD50 at 168 h [2]	ED50 [3]	inhibition at 1 µg/mL [4]	inhibition at 10 µg/mL [5]	inhibition of RPAR reaction [6]
Cc1ccccc1C=C1CCc2c1nc1ccc(C(=O)O)cn1c2=O [3-(2-methyl-benzylidene)-1,2,3,10-tetrahydro-10-oxo-cyclopenta[d]pyrido[1,2-a]pyrimidine-7-carboxylic acid]	~10 mg/kg	> 800 mg/kg				
O=C(O)c1ccc2nc3c(c(=O)n2c1)CCC3=Cc1ccccc1 [3-benzylidene-1,2,3,10-tetrahydro-10-oxo-cyclopenta[d]pyrido[1,2-a]pyrimidine-7-carboxylic acid]		> 800 mg/kg	12 mg/kg			
O=C(O)c1ccc2nc3c(c(=O)n2c1)CCCC3=Cc1ccccc1 [FCE 21273, 4-benzylidene-1,2,3,4-tetrahydro-11-oxo-11H-pyrido[2,1-b]quinazoline-8-carboxylic acid]		> 800 mg/kg		50%	47%	~30%
